# Experimental data as given in ChEMBL document CHEMBL4251562, “Discovery of new potent molecular entities able to inhibit mPGES-1” (Eur J Med Chem, 2018).
# Activity calls are given as the source filed them. The rule behind the calls is not given here.
# Experiments:
# [1] = biological target: T1, Prostaglandin G/H synthase 1 (Ovis aries) (UniProt P05979); assay: Inhibition of ovine COX1 at 10 uM using arachidonic acid as substrate preincubated for 5 mins followed by substrate addition and measured after 5 mins by UPLC-MS/MS analysis
# T1 sequence (whole entry): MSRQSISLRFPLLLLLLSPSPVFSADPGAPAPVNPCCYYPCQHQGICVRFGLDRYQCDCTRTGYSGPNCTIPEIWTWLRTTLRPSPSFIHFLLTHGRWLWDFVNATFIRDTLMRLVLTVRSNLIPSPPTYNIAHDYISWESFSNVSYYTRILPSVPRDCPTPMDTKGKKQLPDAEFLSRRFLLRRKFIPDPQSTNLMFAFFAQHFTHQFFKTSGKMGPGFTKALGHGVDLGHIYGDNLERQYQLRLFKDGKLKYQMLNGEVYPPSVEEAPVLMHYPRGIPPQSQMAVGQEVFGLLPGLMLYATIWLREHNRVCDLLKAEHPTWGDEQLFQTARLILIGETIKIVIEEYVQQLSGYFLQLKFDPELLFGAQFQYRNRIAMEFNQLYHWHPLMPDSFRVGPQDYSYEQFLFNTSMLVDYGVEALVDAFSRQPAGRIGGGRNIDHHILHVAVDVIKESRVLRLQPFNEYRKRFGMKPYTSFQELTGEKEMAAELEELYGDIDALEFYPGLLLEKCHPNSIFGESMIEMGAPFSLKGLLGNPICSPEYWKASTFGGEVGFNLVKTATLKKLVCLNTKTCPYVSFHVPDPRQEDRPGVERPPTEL
# Prostaglandin E synthase = biological target: T2, Prostaglandin E synthase (Homo sapiens, UniProt O14684); assay: Inhibition of mPGES1 in IL-1beta-stimulated human A549 cell microsomes using PGH2 as substrate assessed as reduction in PGE2 production preincubated for 15 mins followed by substrate addition and measured after 1 min by RP-HPLC analysis
# T2 sequence (O14684 whole entry): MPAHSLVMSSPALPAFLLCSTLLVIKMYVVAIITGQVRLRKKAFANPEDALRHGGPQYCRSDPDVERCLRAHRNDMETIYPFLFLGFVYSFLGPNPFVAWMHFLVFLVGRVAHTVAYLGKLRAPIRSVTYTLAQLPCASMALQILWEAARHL
# [2] = biological target: T3, Prostaglandin E synthase (Homo sapiens) (UniProt O14684); assay: Inhibition of mPGES1 in IL-1beta-stimulated human A549 cell microsomes assessed as remaining activity at 10 uM using PGH2 as substrate by measuring reduction in PGE2 production preincubated for 15 mins followed by substrate addition and measured after 1 min by RP-HPLC analysis
# T3 sequence (whole entry): T2 sequence (O14684 whole entry)
# [3] = biological target: T4, Prostaglandin G/H synthase 2 (Homo sapiens) (UniProt P35354); assay: Inhibition of recombinant human COX2 at 10 uM using arachidonic acid as substrate preincubated for 5 mins followed by substrate addition and measured after 5 mins by UPLC-MS/MS analysis
# T4 sequence (whole entry): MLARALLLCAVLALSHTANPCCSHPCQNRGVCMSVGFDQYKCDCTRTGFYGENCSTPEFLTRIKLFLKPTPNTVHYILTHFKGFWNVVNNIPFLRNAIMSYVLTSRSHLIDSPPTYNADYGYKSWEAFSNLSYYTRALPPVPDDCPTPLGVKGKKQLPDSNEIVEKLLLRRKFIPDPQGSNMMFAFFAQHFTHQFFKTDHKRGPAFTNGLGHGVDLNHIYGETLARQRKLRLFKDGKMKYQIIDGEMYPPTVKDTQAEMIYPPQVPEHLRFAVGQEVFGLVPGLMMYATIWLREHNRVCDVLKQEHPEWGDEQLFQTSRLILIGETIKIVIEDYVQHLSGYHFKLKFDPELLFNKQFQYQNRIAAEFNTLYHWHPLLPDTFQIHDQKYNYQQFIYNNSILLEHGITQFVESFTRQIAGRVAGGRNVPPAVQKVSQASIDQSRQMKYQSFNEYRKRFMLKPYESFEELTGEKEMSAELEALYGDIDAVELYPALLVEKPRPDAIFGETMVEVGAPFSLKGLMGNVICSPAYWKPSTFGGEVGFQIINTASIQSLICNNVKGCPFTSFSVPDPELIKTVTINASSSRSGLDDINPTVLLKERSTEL
# [4] = biological target: T5, Prostaglandin G/H synthase 1 (Ovis aries, UniProt P05979); assay: Inhibition of ovine COX1 using arachidonic acid as substrate preincubated for 5 mins followed by substrate addition and measured after 5 mins by UPLC-MS/MS analysis
# T5 sequence (P05979 whole entry): T1 sequence (whole entry)
Compound,inhibition [1],IC50 (Prostaglandin E synthase) [nM],Activity [2],inhibition [3],IC50 [4] [nM]
COCCc1ccc(OCc2ccc(-c3cc(F)c([N+](=O)[O-])cc3[N+](=O)[O-])cc2)cc1,inactive,1640,11.8%,inactive,–
O=[N+]([O-])c1cc([N+](=O)[O-])c(-c2ccc(COc3cccc(C(F)(F)F)c3)cc2)cc1F,inactive,260,12.1%,inactive,–
O=[N+]([O-])c1cc(C(F)(F)F)ccc1-c1ccc(COc2ccccc2)cc1,–,> 10000,inactive,–,–
O=[N+]([O-])c1cc([N+](=O)[O-])c(-c2ccc(COc3cccc4ccccc34)cc2)cc1F,inactive,180,9.1%,inactive,–
O=[N+]([O-])c1cc(C(F)(F)F)ccc1-c1ccc(COc2cccc3ccccc23)cc1,–,> 10000,inactive,–,–
O=[N+]([O-])c1cc(C(F)(F)F)ccc1-c1ccccc1COc1cccc(C(F)(F)F)c1,–,> 10000,inactive,–,–
O=[N+]([O-])c1cc(C(F)(F)F)ccc1-c1ccc(COc2cccc(C(F)(F)F)c2)cc1,–,> 10000,inactive,–,–
COCCc1ccc(OCc2ccc(-c3ccc(C(F)(F)F)cc3[N+](=O)[O-])cc2)cc1,–,> 10000,inactive,–,–
O=[N+]([O-])c1cc([N+](=O)[O-])c(-c2ccc(COc3ccccc3)cc2)cc1F,inactive,600,9.5%,inactive,–
O=[N+]([O-])c1cc([N+](=O)[O-])c(-c2ccccc2COc2cccc(C(F)(F)F)c2)cc1F,Active,540,7%,inactive,3000
